# According to patent US20240174727A1, “LONG-ACTING NATRIURETIC PEPTIDES AND USES THEREOF” (Eli Lilly and Company, priority 2022, published 2024):
# Numbered stars: 1 amine (or outer) side, 2 acyl side, 3 side chain; on linkers, the order of the positions; unused ones are H or OH. Bridge positions count the residues as written; N and C are the ends. Square brackets hold non-standard residues; d marks the D form. * marks the point of attachment. PEG24 = NCCOCCOCCOCCOCCOCCOCCOCCOCCOCCOCCOCCOCCOCCOCCOCCOCCOCCOCCOCCOCCOCCOCCOCCOCCC(=O)O; C20 diacid = O=C(O)CCCCCCCCCCCCCCCCCCC(=O)*; γGlu = O=C(O)[C@H](CCC(=O)[*:2])N[*:1]; CH2 = C([*:1])[*:2]; βAla = NCCC(=O)O
# T1: human NPRA (human, UniProt P16066 33-1061)
# T1 sequence (looked up): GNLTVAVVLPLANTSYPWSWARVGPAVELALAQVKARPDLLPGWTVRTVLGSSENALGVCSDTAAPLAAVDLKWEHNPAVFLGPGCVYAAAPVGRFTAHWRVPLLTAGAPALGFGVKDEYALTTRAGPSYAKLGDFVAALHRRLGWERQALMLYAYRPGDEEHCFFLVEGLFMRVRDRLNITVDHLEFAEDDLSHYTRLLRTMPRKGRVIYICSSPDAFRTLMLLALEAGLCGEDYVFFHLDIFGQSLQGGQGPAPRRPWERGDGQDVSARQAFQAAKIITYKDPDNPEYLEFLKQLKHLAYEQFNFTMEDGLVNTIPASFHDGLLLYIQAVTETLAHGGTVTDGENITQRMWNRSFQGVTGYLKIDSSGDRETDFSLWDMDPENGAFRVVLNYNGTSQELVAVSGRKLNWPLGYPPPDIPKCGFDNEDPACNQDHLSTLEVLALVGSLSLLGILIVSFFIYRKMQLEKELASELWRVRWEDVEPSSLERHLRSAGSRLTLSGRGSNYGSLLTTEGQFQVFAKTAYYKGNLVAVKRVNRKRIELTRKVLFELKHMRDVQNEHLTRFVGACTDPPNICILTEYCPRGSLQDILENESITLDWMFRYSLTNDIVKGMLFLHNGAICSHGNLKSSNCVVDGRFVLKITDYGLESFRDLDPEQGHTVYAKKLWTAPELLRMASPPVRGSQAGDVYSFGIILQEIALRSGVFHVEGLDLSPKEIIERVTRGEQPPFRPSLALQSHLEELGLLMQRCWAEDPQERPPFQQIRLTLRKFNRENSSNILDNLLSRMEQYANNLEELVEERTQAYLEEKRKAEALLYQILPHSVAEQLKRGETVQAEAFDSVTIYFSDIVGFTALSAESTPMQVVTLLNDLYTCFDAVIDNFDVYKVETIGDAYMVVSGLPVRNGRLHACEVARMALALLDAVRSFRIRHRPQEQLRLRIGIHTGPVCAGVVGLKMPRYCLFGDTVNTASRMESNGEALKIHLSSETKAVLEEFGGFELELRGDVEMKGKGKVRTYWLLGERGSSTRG
# Key:
# [1] = test system: plasma cGMP; test: In vivo monkey studies, plasma cGMP ELISA; set-up: species or system male cynomolgus monkeys; details: for Net cGMP (nM) Change from Baseline 0.083 h / Net cGMP (nM) Change from Baseline 0.25 h / Net cGMP (nM) Change from Baseline 0.5 h / Net cGMP (nM) Change from Baseline 1 h / Net cGMP (nM) Change from Baseline 2 h / Net cGMP (nM) Change from Baseline 4 h / Net cGMP (nM) Change from Baseline 8 h / Net cGMP (nM) Change from Baseline 12 h / Net cGMP (nM) Change from Baseline 24 h / Net cGMP (nM) Change from Baseline 36 h / Net cGMP (nM) Change from Baseline 48 h / Net cGMP (nM) Change from Baseline 72 h / Net cGMP (nM) Change from Baseline 96 h / Net cGMP (nM) Change from Baseline 120 h / Net cGMP (nM) Change from Baseline 144 h / Net cGMP (nM) Change from Baseline 168 h: dose 100 nmol/kg, monkey plasma; for Net cGMP (nM) Change from Baseline 0.083 h: 0.083 h postdose; for Net cGMP (nM) Change from Baseline 0.25 h: 0.25 h postdose; for Net cGMP (nM) Change from Baseline 0.5 h: 0.5 h postdose; for Net cGMP (nM) Change from Baseline 1 h: 1 h postdose; for Net cGMP (nM) Change from Baseline 2 h: 2 h postdose; for Net cGMP (nM) Change from Baseline 4 h: 4 h postdose; for Net cGMP (nM) Change from Baseline 8 h: 8 h postdose; for Net cGMP (nM) Change from Baseline 12 h: 12 h postdose; for Net cGMP (nM) Change from Baseline 24 h: 24 h postdose; for Net cGMP (nM) Change from Baseline 36 h: 36 h postdose; for Net cGMP (nM) Change from Baseline 48 h: 48 h postdose; for Net cGMP (nM) Change from Baseline 72 h: 72 h postdose; for Net cGMP (nM) Change from Baseline 96 h: 96 h postdose; for Net cGMP (nM) Change from Baseline 120 h: 120 h postdose; for Net cGMP (nM) Change from Baseline 144 h: 144 h postdose; for Net cGMP (nM) Change from Baseline 168 h: 168 h postdose; for net cGMP levels (result in words): monkeys, single SC dose, plasma
# Description: In vivo monkey studies were conducted as described in detail below. Young adult-to-adult male cynomolgus monkeys were given a single dose subcutaneously (SC). Blood was collected predose and at various pre-determined timepoints throughout the study period. Aliquot of cynomolgus monkey plasma was received for cyclic cGMP (cGMP) measurement and stored at −80° C. prior to use.
# Control plasma was made for determining the recovery rate of spike-in cGMP using Enzo cGMP complete ELISA kit (Enzo Life Sciences, Inc, Farmingdale, NY, cat no. ADI-901-164). Briefly, blood from male Sprague Dawley rats (Inotiv, Indianapolis, IN), about 7 months old, was collected in a BD Vacutainer EDTA tube (Becton Dickinson, Franklin Lakes, NJ, cat no. BD-367856) with volume of approximate 4 mL through retro orbital bleeding. Plasma was prepared by spinning the tube in an Eppendorf Refrigerated Centrifuge 5810R (Brinkman Instruments, Inc, Westbury, NY) at 3500 rpm (3000×g) for 10 min at 4° C. Plasma was collected as Positive Control plasma. Cyclic GMP (cGMP standard from Enzo cGMP complete ELISA kit) was added to the positive control plasma at a final concentration of additional 40 nM. Positive Control and Spiked-in Control plasma were aliquoted and stored at −80° C.
# The cGMP content was measured using the Enzo cGMP complete ELISA kit following the manufacturer's directions with modifications as described below. The cGMP standards provided in the kit were diluted 1:3 ranging from 50 nM to 0.023 nM in 1× assay buffer that was diluted in water from 2× assay buffer provided in the kit. The cGMP standards ([…]) were transferred to a 96-well polypropylene plate (Thermo Scientific, cat no. 442587).
# Plasma samples were thawed from −80° C. and diluted 1:20 in 1× assay buffer in the above plate with a final volume of 150 μL. Assay buffer was added (150 μL) for both a non-specific binding control (in the absence of cGMP antibody) and a maximum binding control (in the absence of competing cGMP) in duplicate wells. Positive Control and Spiked-in Control plasma were diluted 1:20 in 1× assay buffer with a final volume of 150 μL in duplicate wells of the above plate. All diluted plasma was mixed by pipetting up and down several times.
# Acetylation reagent mix was prepared by adding 1-part of acetic anhydride into 2-parts of triethylamine provided in the kit and mixing well using Vortex (Scientific Industries, Inc, Bohemia, NY). All controls, standards, and plasma samples were acetylated by adding 15 μL of acetylation reagent mix into the plate, one column at a time, and shaking for 1 min on a Titer Plate Shaker (Lab-Line Instrument, Inc., Melrose Park, IL) at room temperature. The plate was shaken for an additional 1 min following the acetylation of the last column to ensure the reaction was completed.
# Acetylated controls, standard and plasma samples were transferred (100 μL) to an ELISA plate (n=1). Then 50 μL of cGMP conjugate were added to each well followed by the addition of 50 μL cGMP antibody to each well except for two non-specific binding wells, in which 50 μL of 1× assay buffer were added. The plate was then sealed and shaken for 2 h at room temperature on the plate shaker. Following this incubation, the plate was washed five times using 200 μL of 1× wash buffer diluted in water from 5× wash buffer provided in the kit. Then, 200 μL of para-Nitrophenylphosphate (pNpp) were added to each well. The plate was sealed with a new plate sealer and shaken in dark for 1 h at room temperature on the plate shaker. Finally, 50 μL of stop solution were added to each well to stop the enzyme reaction. The plate was then read at 405 nm using SpectraMax Plus (Molecular Devices, San Jose, CA).
# The mean absorbance at 405 nm (O.D. 405 nm) for the non-specific binding controls was subtracted from the O.D. 405 nm of all samples. The subtracted O.D. 405 nm of all samples were then normalized with the mean subtracted O.D. 405 nm of the maximum binding controls as B/B0%. […]
# [2] = biological target: T1, human NPRA; test: cell-based or functional assay
Molecule,Net cGMP (nM) Change from Baseline 0.083 h [1],Net cGMP (nM) Change from Baseline 0.25 h [1],Net cGMP (nM) Change from Baseline 0.5 h [1],Net cGMP (nM) Change from Baseline 1 h [1],Net cGMP (nM) Change from Baseline 2 h [1],Net cGMP (nM) Change from Baseline 4 h [1],Net cGMP (nM) Change from Baseline 8 h [1],Net cGMP (nM) Change from Baseline 12 h [1],Net cGMP (nM) Change from Baseline 24 h [1],Net cGMP (nM) Change from Baseline 36 h [1],Net cGMP (nM) Change from Baseline 48 h [1],Net cGMP (nM) Change from Baseline 72 h [1],Net cGMP (nM) Change from Baseline 96 h [1],Net cGMP (nM) Change from Baseline 120 h [1],Net cGMP (nM) Change from Baseline 144 h [1],Net cGMP (nM) Change from Baseline 168 h [1],net cGMP levels (result in words) [1],"cGMP Assay (EC50, pM) w/BSA [2]","cGMP Assay (EC50, pM) w/Casein [2]"
{C20 diacid-γGlu}-EKEKEKG[PEG24]EK[βAla]RSSCFGKRIDRIGHYSGLGCPSFRHGSPSSGAPPPS-NH2 (linker 15-31 via CH2) [Example 106],3.54 nM,19.8 nM,25.25 nM,24.83 nM,26.38 nM,26.16 nM,14.03 nM,17.64 nM,9.38 nM,12.13 nM,8.71 nM,5.67 nM,6.4 nM,7.88 nM,7.54 nM,7.66 nM,increased net cGMP levels,,
CC[C@H](C)[C@@H]1NC(=O)[C@H](CCCNC(=N)N)NC(=O)[C@H](CC(=O)O)NC(=O)[C@H]([C@@H](C)CC)NC(=O)[C@H](CCCNC(=N)N)NC(=O)[C@H](CCCCN)NC(=O)CNC(=O)[C@H](Cc2ccccc2)NC(=O)[C@@H](NC(=O)[C@H](CO)NC(=O)[C@H](CO)NC(=O)[C@H](CCCNC(=N)N)NC(=O)[C@H](CCCNC(=N)N)NC(=O)[C@H](Cc2ccncc2)NC(=O)[C@H](CO)NC(=O)CNC(=O)[C@H](CCCCN)NC(=O)[C@H](CCC(=O)O)NC(=O)[C@H](CCCCN)NC(=O)[C@H](CCC(=O)O)NC(=O)[C@H](CCCCN)NC(=O)[C@H](CCC(=O)O)NC(=O)CC[C@H](NC(=O)CCCCCCCCCCCCCCCCC(=O)O)C(=O)O)CSCSC[C@@H](C(=O)N2CCC[C@H]2C(=O)N[C@@H](CO)C(=O)N[C@@H](Cc2ccccc2)C(=O)N[C@@H](CCCNC(=N)N)C(=O)N[C@@H](Cc2c[nH]cn2)C(=O)NCC(=O)NCC(=O)N[C@@H](CCCCN)C(=O)N[C@@H](CO)C(=O)N[C@@H](CO)C(=O)NCC(=O)N[C@@H](C)C(=O)N2CCC[C@H]2C(=O)N2CCC[C@H]2C(=O)N2CCC[C@H]2C(=O)N[C@@H](CO)C(N)=O)NC(=O)CNC(=O)[C@H](CC(C)C)NC(=O)CNC(=O)[C@H](CO)NC(=O)[C@H](Cc2ccc(O)cc2)NC(=O)[C@H](Cc2c[nH]cn2)NC(=O)CNC1=O [Example 81],5.6 nM,32.08 nM,37.47 nM,43.98 nM,38.64 nM,31.25 nM,23.05 nM,27.6 nM,22.83 nM,24.25 nM,15.44 nM,12.4 nM,10.48 nM,12.63 nM,9.54 nM,7 nM,increased net cGMP levels,,
XEKEKEKGEKGRSSCFGGKIDRIGHYSGLGCPSFRHGGPSSGAPPPS (HOOC-(CH2)18-CO-(γGlu)-EKEKEKGEKGRSS[CFGGKIDRIGHYSGLGC]PSFRHGGPSSGAPPPS-NH2; disulfide linkage between the bracketed Cys) [Example 45],,,,,,,,,,,,,,,,,,25200 pM,
XEKEKEKGEKERSSCFGGRIDRIGHYSGLGCPSFRHGGPSSGAPPPS (HOOC-(CH2)18-CO-(γGlu)-EKEKEKGEKERSS[CFGGRIDRIGHYSGLGC]PSFRHGGPSSGAPPPS-NH2; disulfide linkage between the bracketed Cys) [Example 49],,,,,,,,,,,,,,,,,,,299 pM
XEKEKEKGSXRRSSCFGGRIDRIGAQSGLGCPSFRXGGPSSGAPPPS (HOOC-(CH2)18-CO-(γGlu)-EKEKEKGS-4Pal-RRSS[CFGGRIDRIGAQSGLGC]PSFR-4Pal-GGPSSGAPPPS-NH2; disulfide linkage between the bracketed Cys) [Example 23],,,,,,,,,,,,,,,,,,,3490 pM
